Experiments:
[1] = system: OVCAR3 ovarian xenografts; assay: OVCAR3 ovarian xenograft model; conditions: dose 20 mg/kg intraperitoneally Q7d×8
[2] = system: MDA-MB-468 (breast cancer); assay: In vitro cytotoxicity (MTS), MDA-MB-468; type: cell-based, human; conditions: Table 13; four days; LP = lacked potency
Procedure: (§1) The effects of anti-Notch3 ADCs were assessed on 1) cell lines endogenously expressing Notch3 protein: HCC2429 (lung cancer), OVCAR3 (ovarian cancer) and MDA-MB-468 (breast cancer), 2) cell lines engineered to over-express full length human Notch3 protein: MDA-MB-468/hNotch3 and U2OS/hNotch3, and 3) a negative control cell line (SW900) using an MTS cellular viability indicator (Promega, Madison, Wis.). These cell lines were cultured with increasing concentrations of anti-Notch3 ADCs comprising rat-human chimeric anti-Notch3 antibodies, ch28 and ch75, and humanized anti-Notch3 antibodies, hu28 and hu75, conjugated to various linker-payload combinations of the present invention. As a specificity control for the anti-Notch3-ADCs, non-targeted control-ADCs (huNeg8.8-ADCs or ch2H6-ADCs) were also tested on the same cell lines. After four days, viability of each culture was assessed. IC50 values were calculated by logistic non-linear regression, model #203 with XL fit v4.2 (IDBS, Guildford, Surry, UK) and presented as ng Ab/mL. The drug antibody ratio (DAR) is also provided.

[3] = system: OVCAR3 (ovarian cancer); assay: In vitro cytotoxicity (MTS), OVCAR3; type: cell-based, human; conditions: Table 13; four days; LP = lacked potency
Procedure: as §1
(§2) This process generated the anti-Notch3 cysteine mutant ADCs: hu28-(L443C)-vc0101 and hu28-(L443C/κK183C)-vc0101. The activity of the anti-Notch3 cysteine mutant ADCs were assessed on cell lines endogenously expressing Notch3 protein: HCC2429 (lung cancer) and OVCAR3 (ovarian cancer) using an MTS cellular viability indicator as described in previous Examples.

[4] = system: HCC2429 (lung cancer); assay: In vitro cytotoxicity (MTS), HCC2429; type: cell-based, human; conditions: Table 13; four days; LP = lacked potency
Procedure: as §1, §2

For `N.N.O=C([O-])C1(C(=O)[O-])CCC1.[Pt+2]` [carboplatin, reference compound], the tumor volume ([1]; DAY 0) was 167 mm3, the tumor volume ([1]; DAY 3) was 242 mm3 and the tumor volume ([1]; DAY 6) was 246 mm3. For the same molecule, the tumor volume ([1]; DAY 11) was 311 mm3, the tumor volume ([1]; DAY 14) was 426 mm3 and the tumor volume ([1]; DAY 18) was 473 mm3. For the same molecule, the tumor volume ([1]; DAY 21) was 475 mm3, the tumor volume ([1]; DAY 25) was 552 mm3 and the tumor volume ([1]; DAY 28) was 640 mm3. It also gave a tumor volume ([1]; DAY 31) of 692 mm3, a tumor volume ([1]; DAY 34) of 811 mm3 and a tumor volume ([1]; DAY 38) of 869 mm3. For the same molecule, the tumor volume ([1]; DAY 41) was 906 mm3, the tumor volume ([1]; DAY 45) was 1009 mm3 and the tumor volume ([1]; DAY 49) was 1149 mm3. For the same molecule, the tumor volume ([1]; DAY 53) was 1290 mm3, the tumor volume ([1]; DAY 56) was 1370 mm3 and the tumor volume ([1]; DAY 59) was 1514 mm3. For the same molecule, the tumor volume ([1]; DAY 63) was 1783 mm3 and the tumor volume ([1]; DAY 67) was 1844 mm3.

B1: ch75-MalPeg6C2-8261 (conjugate)
VH: QVKLLQSGAALVKPGASVKMSCKASGYAFTDYWVTWVKQSHGKSLEWIGEISPNSGGTNFNEKFKGKATLTVDKSTSTAYMELSRLTSEDSAIYYCTRGEIRYNWFAYWGQGTLVTVSS
VL: DIQMTQSPSSLSASVGDRVTITCKASQNVGNNIAWYQQKPGKAPKLLIYYASNRYTGVPSRFSGSGYGTDFTLTISSLQPEDFATYYCQRLYNSPFTFGGGTKVEIK
B1 was tested, and the “IC50 (ng Ab/mL) ± S.E.M., MDA-MB-468” value [2] was 4255 ± 2375^ ng Ab/mL.

B2: ch28-me0131 (conjugate)
VH: EVQLVESGGGLVQPGRSLTLSCVASGFTFRDYGMTWIRQAPGKGLTWVAYISSGSNYIYYAEAVKGRFTISRDNAKNTLYLQMTSLRSEDTALYFCTRRGPFVLDAWGQGASVTVSS
VL: DIQMTQSPSFLSASVGDRVTINCKASQSINRYLHWFQQKLGEAPKLLIYNANGLQTGIPSRFSGSGSGTDFTLTISSLQSEDVATYFCLQHNTWPDTFGAGTKLELK
For B2, the “IC50 (ng Ab/mL) ± S.E.M., OVCAR3” value [3] was 8 ± 2.0 ng Ab/mL, the “IC50 (ng Ab/mL) ± S.E.M., HCC2429” value [4] was 30 ng Ab/mL and the “IC50 (ng Ab/mL) ± S.E.M., MDA-MB-468” value [2] was 24 ± 14.0 ng Ab/mL.

B3: ch75-me0131 (conjugate)
VH: QVKLLQSGAALVKPGASVKMSCKASGYAFTDYWVTWVKQSHGKSLEWIGEISPNSGGTNFNEKFKGKATLTVDKSTSTAYMELSRLTSEDSAIYYCTRGEIRYNWFAYWGQGTLVTVSS
VL: DIQMTQSPSSLSASVGDRVTITCKASQNVGNNIAWYQQKPGKAPKLLIYYASNRYTGVPSRFSGSGYGTDFTLTISSLQPEDFATYYCQRLYNSPFTFGGGTKVEIK
For B3, the “IC50 (ng Ab/mL) ± S.E.M., MDA-MB-468” value [2] was 259 ng Ab/mL.

B4: ch28-mc3377 (conjugate)
VH: EVQLVESGGGLVQPGRSLTLSCVASGFTFRDYGMTWIRQAPGKGLTWVAYISSGSNYIYYAEAVKGRFTISRDNAKNTLYLQMTSLRSEDTALYFCTRRGPFVLDAWGQGASVTVSS
VL: DIQMTQSPSFLSASVGDRVTINCKASQSINRYLHWFQQKLGEAPKLLIYNANGLQTGIPSRFSGSGSGTDFTLTISSLQSEDVATYFCLQHNTWPDTFGAGTKLELK
In the case of B4, the “IC50 (ng Ab/mL) ± S.E.M., OVCAR3” value [3] is reported as 14 ± 5.5 ng Ab/mL and the “IC50 (ng Ab/mL) ± S.E.M., MDA-MB-468” value [2] is reported as 27 ± 11.3 ng Ab/mL.

B5: ch75-mc3377 (conjugate)
VH: QVKLLQSGAALVKPGASVKMSCKASGYAFTDYWVTWVKQSHGKSLEWIGEISPNSGGTNFNEKFKGKATLTVDKSTSTAYMELSRLTSEDSAIYYCTRGEIRYNWFAYWGQGTLVTVSS
VL: DIQMTQSPSSLSASVGDRVTITCKASQNVGNNIAWYQQKPGKAPKLLIYYASNRYTGVPSRFSGSGYGTDFTLTISSLQPEDFATYYCQRLYNSPFTFGGGTKVEIK
With B5 the “IC50 (ng Ab/mL) ± S.E.M., MDA-MB-468” value [2] was 560 ng Ab/mL.

B6: ch28-MalPeg6C2-0131 (conjugate)
VH: EVQLVESGGGLVQPGRSLTLSCVASGFTFRDYGMTWIRQAPGKGLTWVAYISSGSNYIYYAEAVKGRFTISRDNAKNTLYLQMTSLRSEDTALYFCTRRGPFVLDAWGQGASVTVSS
VL: DIQMTQSPSFLSASVGDRVTINCKASQSINRYLHWFQQKLGEAPKLLIYNANGLQTGIPSRFSGSGSGTDFTLTISSLQSEDVATYFCLQHNTWPDTFGAGTKLELK
B6 was tested, and the “IC50 (ng Ab/mL) ± S.E.M., OVCAR3” value [3] was 10 ± 2.0 ng Ab/mL and the “IC50 (ng Ab/mL) ± S.E.M., MDA-MB-468” value [2] was 10 ± 1.0 ng Ab/mL.

B7: ch28-vc6780 (conjugate)
VH: EVQLVESGGGLVQPGRSLTLSCVASGFTFRDYGMTWIRQAPGKGLTWVAYISSGSNYIYYAEAVKGRFTISRDNAKNTLYLQMTSLRSEDTALYFCTRRGPFVLDAWGQGASVTVSS
VL: DIQMTQSPSFLSASVGDRVTINCKASQSINRYLHWFQQKLGEAPKLLIYNANGLQTGIPSRFSGSGSGTDFTLTISSLQSEDVATYFCLQHNTWPDTFGAGTKLELK
B7 was tested, and the “IC50 (ng Ab/mL) ± S.E.M., OVCAR3” value [3] was 90 ± 48.5 ng Ab/mL, the “IC50 (ng Ab/mL) ± S.E.M., HCC2429” value [4] was 324 ± 78.9 ng Ab/mL and the “IC50 (ng Ab/mL) ± S.E.M., MDA-MB-468” value [2] was 4407 ± 2128.2 ng Ab/mL.

B8: ch28-mc8261 (conjugate)
VH: EVQLVESGGGLVQPGRSLTLSCVASGFTFRDYGMTWIRQAPGKGLTWVAYISSGSNYIYYAEAVKGRFTISRDNAKNTLYLQMTSLRSEDTALYFCTRRGPFVLDAWGQGASVTVSS
VL: DIQMTQSPSFLSASVGDRVTINCKASQSINRYLHWFQQKLGEAPKLLIYNANGLQTGIPSRFSGSGSGTDFTLTISSLQSEDVATYFCLQHNTWPDTFGAGTKLELK
With B8 the “IC50 (ng Ab/mL) ± S.E.M., MDA-MB-468” value [2] was 12147 ± 4806.4 ng Ab/mL.

B9: ch28-MalPeg6C2-8261 (conjugate)
VH: EVQLVESGGGLVQPGRSLTLSCVASGFTFRDYGMTWIRQAPGKGLTWVAYISSGSNYIYYAEAVKGRFTISRDNAKNTLYLQMTSLRSEDTALYFCTRRGPFVLDAWGQGASVTVSS
VL: DIQMTQSPSFLSASVGDRVTINCKASQSINRYLHWFQQKLGEAPKLLIYNANGLQTGIPSRFSGSGSGTDFTLTISSLQSEDVATYFCLQHNTWPDTFGAGTKLELK
In the case of B9, the “IC50 (ng Ab/mL) ± S.E.M., MDA-MB-468” value [2] is reported as 83 ± 35.5 ng Ab/mL.

Source: patent US9433687B2, “Anti-Notch3 antibodies and antibody-drug conjugates” (Pfizer Inc., priority 2012, dated 2016)
